In article PMC9218685, “Legume Plant Peptides as Sources of Novel Antimicrobial Molecules Against Human Pathogens” (Frontiers in Molecular Biosciences, 2022):
Values after ≈ are worked out from the molar mass of the structure shown. Peptide text beside a SMILES is read from it.

Columns and labels:
Assay type in all cases: cell-based
[1] = system: Pseudomonas aeruginosa (ATCC 27853); conditions: ATCC 27853, 3 h
Summary of the method: (§1)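 MBC read as lowest peptide concentration giving no viable bacteria; ~10^7 log-phase cells, PPB pH 7.4, 3 h treatment, 2-fold dilutions from 25 µM.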

[2] = system: Escherichia coli (ATCC 8739); conditions: ATCC 8739, 3 h
Summary of the method: as §1

[3] = system: Staphylococcus aureus (HNCMO112011); conditions: HNCMO112011, 3 h
Summary of the method: as §1

[4] = system: Klebsiella pneumoniae (NCTC 13440); conditions: NCTC 13440, 3 h
Summary of the method: as §1

[5] = system: Salmonella enterica (ATCC 13076); conditions: ATCC 13076, 3 h
Summary of the method: as §1

[6] = system: Acinetobacter baumannii (ATCC 17978); assay: microbe, parasite or virus in culture; conditions: ATCC 17978, 3 h
Summary of the method: as §1

[7] = system: Listeria monocytogenes (ATCC 19111); conditions: ATCC 19111, 3 h
Summary of the method: as §1

[8] = system: E. coli, S. enteritidis, P. aeruginosa, L. monocytogenes, S. aureus, E. faecalis, K. pneumoniae and A. baumannii; assay: Antimicrobial activity assay, spectrum over the eight tested pathogenic bacteria; conditions: 3 h treatment of ~10^7 log phase bacteria, peptides 25 to 0.8 µM; active = MBC ≤25 µM
Summary of the method: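 Log-phase bacteria (~10^7) treated 3 h with NCR peptides in potassium-phosphate buffer pH 7.4, two-fold dilutions from 25 µM to 0.8 µM. MBC is the lowest concentration completely eliminating viable bacteria. Strains: E. faecalis ATCC 29212, S. aureus HNCMO112011, L. monocytogenes ATCC 19111, P. aeruginosa ATCC 27853, E. coli ATCC 8739, S. enterica ATCC 13076, K. pneumoniae NCTC 13440, A. baumannii ATCC 17978.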

[9] = system: Enterococcus faecalis (ATCC 29212)
Summary of the method: as §1

Structure (SMILES)	MBC Pseudomonas aeruginosa [1] [µM]	MBC Escherichia coli [2] [µM]	MBC Staphylococcus aureus [3] [µM]	MBC Klebsiella pneumoniae [4] [µM]	MBC Salmonella enterica [5] [µM]	MBC Acinetobacter baumannii [6] [µM]	MBC Listeria monocytogenes [7] [µM]	Antibacterial spectrum over the eight tested bacterial strains [8]	Ability to kill E. faecalis ([9]; 3 h, ~10^7 log phase bacteria, peptides ≤25 µM)	MBC Enterococcus faecalis ([9]; ATCC 29212, 3 h) [µM]
CC(C)C[C@H](NC(=O)[C@H](CS)NC(=O)[C@H](CCCCN)NC(=O)CNC(=O)[C@@H](N)Cc1ccccc1)C(=O)N[C@@H](CCCCN)C(=O)N[C@@H](CC(C)C)C(=O)N[C@@H](CCCCN)C(=O)N[C@@H](CS)C(=O)N[C@H](C(=O)N[C@@H](Cc1ccc(O)cc1)C(=O)N[C@H](C(=O)N1CCC[C@H]1C(=O)N[C@@H](CCCCN)C(=O)N[C@@H](CCCNC(=N)N)C(N)=O)[C@@H](C)O)C(C)C [GoNCR308 (16-30)] (H-FGKCLKLKCVYTPKR-NH2; N-terminus assumed)	3.125 (≈ 5.57 µg/mL)	3.125 (≈ 5.57 µg/mL)	50 (≈ 89.2 µg/mL)	25 (≈ 44.6 µg/mL)	3.125 (≈ 5.57 µg/mL)	3.125 (≈ 5.57 µg/mL)	–	–	–	–
CC[C@H](C)[C@H](NC(=O)CNC(=O)[C@H](CCCNC(=N)N)NC(=O)[C@H](CCCCN)NC(=O)[C@H](CCCNC(=N)N)NC(=O)[C@@H](NC(=O)[C@H](CCCCN)NC(=O)[C@H](CS)NC(=O)[C@H](CC(C)C)NC(=O)CNC(=O)CNC(=O)[C@@H](NC(=O)[C@H](CS)NC(=O)[C@H](CCCNC(=N)N)NC(=O)[C@@H](N)Cc1c[nH]cn1)[C@@H](C)CC)C(C)C)C(=O)N[C@@H](CCCCN)C(=O)NCC(=O)N[C@@H](Cc1ccccc1)C(=O)N[C@H](C(=O)N[C@@H](CC(N)=O)C(=O)N[C@H](C(=O)N1CCC[C@H]1C(N)=O)[C@@H](C)CC)[C@@H](C)CC [GoNCR313 (23-44)] (H-HRCIGGLCKVRKRGIKGFINIP-NH2; N-terminus assumed)	3.125 (≈ 7.7 µg/mL)	3.125 (≈ 7.7 µg/mL)	–	12.5 (≈ 30.8 µg/mL)	6.25 (≈ 15.4 µg/mL)	–	–	–	–	–
CSCC[C@H](NC(=O)[C@H](Cc1ccccc1)NC(=O)[C@H](CCCCN)NC(=O)[C@@H]1CCCN1C(=O)[C@H](CS)NC(=O)[C@H](CCCNC(=N)N)NC(=O)CNC(=O)[C@H](CC(=O)O)NC(=O)[C@H](CCCNC(=N)N)NC(=O)CNC(=O)[C@H](CS)NC(=O)[C@H](CC(C)C)NC(=O)[C@@H](NC(=O)[C@H](CCCNC(=N)N)NC(=O)[C@@H](N)CCSC)C(C)C)C(=O)N[C@@H](CS)C(=O)N[C@@H](CCCNC(=N)N)C(=O)N[C@H](C(=O)N[C@@H](Cc1ccccc1)C(=O)N[C@@H](CC(C)C)C(=O)O)[C@@H](C)O [NCR280] (H-MRVLCGRDGRCPKFMCRTFL-OH; N-terminus assumed)	12.5 (≈ 29.9 µg/mL)	3.125 (≈ 7.47 µg/mL)	–	25 (≈ 59.8 µg/mL)	3.125 (≈ 7.47 µg/mL)	1.6 (≈ 3.82 µg/mL)	3.125 (≈ 7.47 µg/mL)	active against all strains except S. aureus and E. faecalis	–	–
CC[C@H](C)[C@H](NC(=O)[C@H](CC(C)C)NC(=O)[C@H](CC(N)=O)NC(=O)[C@@H](NC(=O)[C@H](CS)NC(=O)[C@H](Cc1ccc(O)cc1)NC(=O)CNC(=O)[C@H](CCCCN)NC(=O)[C@H](CCCNC(=N)N)NC(=O)[C@H](CS)NC(=O)[C@H](CCCNC(=N)N)NC(=O)[C@@H](NC(=O)[C@H](CC(N)=O)NC(=O)[C@H](CCSC)NC(=O)CNC(=O)[C@H](C)NC(=O)[C@H](CCCNC(=N)N)NC(=O)[C@H](CCCNC(=N)N)NC(=O)[C@@H](NC(=O)[C@H](CS)NC(=O)[C@H](CC(=O)O)NC(=O)[C@H](CCCCN)NC(=O)[C@H](CC(=O)O)NC(=O)[C@@H](NC(=O)[C@@H](NC(=O)[C@H](CS)NC(=O)[C@@H]1CCCN1C(=O)[C@H](CC(N)=O)NC(=O)[C@@H]1CCCN1C(=O)[C@@H](NC(=O)[C@H](Cc1c[nH]cn1)NC(=O)[C@H](CO)NC(=O)[C@H](Cc1ccc(O)cc1)NC(=O)[C@@H](N)Cc1ccccc1)C(C)C)[C@@H](C)CC)[C@@H](C)O)[C@@H](C)CC)[C@@H](C)CC)C(C)C)C(=O)N[C@@H](CC(C)C)C(=O)N[C@@H](CCCNC(=N)N)C(=O)O [NCR700] (H-FYSHVPNPCITDKDCIRRAGMNIRCRKGYCVNLILR-OH; N-terminus assumed)	6.25 (≈ 26.4 µg/mL)	3.125 (≈ 13.2 µg/mL)	–	12.5 (≈ 52.8 µg/mL)	12.5 (≈ 52.8 µg/mL)	1.6 (≈ 6.76 µg/mL)	1.6 (≈ 6.76 µg/mL)	active against all strains except S. aureus and E. faecalis	–	–
CC[C@H](C)[C@H](NC(=O)[C@H](CO)NC(=O)[C@@H](NC(=O)[C@H](CO)NC(=O)[C@@H]1CCCN1C(=O)[C@@H]1CCCN1C(=O)[C@H](CS)NC(=O)[C@H](CC(=O)O)NC(=O)[C@@H](NC(=O)[C@H](CC(=O)O)NC(=O)[C@@H](NC(=O)[C@H](CCCCN)NC(=O)[C@H](CS)NC(=O)[C@H](CCCCN)NC(=O)[C@@H](NC(=O)[C@H](C)NC(=O)[C@@H](NC(=O)[C@H](C)N)C(C)C)[C@@H](C)O)[C@@H](C)O)C(C)C)[C@@H](C)O)C(=O)N[C@@H](CCCNC(=N)N)C(=O)N[C@@H](CCCNC(=N)N)C(=O)N[C@@H](Cc1ccc(O)cc1)C(=O)N[C@@H](CCCCN)C(=O)N[C@@H](CS)C(=O)N[C@H](C(=O)N[C@@H](CCCCN)C(=O)N[C@@H](CC(N)=O)C(=O)N[C@@H](CCCCN)C(=O)N[C@@H](CS)C(=O)N[C@@H](CCCNC(=N)N)C(=O)N[C@@H](Cc1ccc(O)cc1)C(=O)N[C@H](C(=O)N[C@@H](CCCNC(=N)N)C(=O)N[C@@H](CC(C)C)C(=O)N[C@@H](CO)C(=O)N[C@@H](Cc1ccc(O)cc1)C(=O)NCC(N)=O)[C@@H](C)O)[C@@H](C)O [PsNCR351] (H-AVATKCKTDVDCPPSTSIRRYKCTKNKCRYTRLSYG-NH2; N-terminus assumed)	3.125 (≈ 12.9 µg/mL)	3.125 (≈ 12.9 µg/mL)	6.25 (≈ 25.7 µg/mL)	–	25 (≈ 103 µg/mL)	3.125 (≈ 12.9 µg/mL)	6.25 (≈ 25.7 µg/mL)	–	able to kill	12.5 (≈ 51.4 µg/mL)
